Source: ChEMBL document CHEMBL2407031, “Structure-activity relationship study of phenylpyrazole derivatives as a novel class of anti-HIV agents” (Bioorg Med Chem Lett, 2013)

Experiments:
[1] = Cytotoxicity against human NCK45 cells at 10 uM; type: cell-based; conditions: nck45, 10 µM
[2] = system: Human immunodeficiency virus 1; assay: Antiviral activity against HIV-1 infected in human NCK45 cells assessed as inhibition of infection after 48 hrs by dual-reporter gene assay; type: functional, organism-based; conditions: Human immunodeficiency virus 1, NCK45, 48 h
[3] = Cytotoxicity against human NCK45 cells at 1 uM; type: cell-based; conditions: nck45, 1 µM

Structure (SMILES)	EC50 [2] [µM]	Activity [1]	Activity [3]
CCC(=O)Nc1cc(CNc2c(C#N)c(C)nn2-c2ccc3ncccc3c2)cc(Cl)c1O	> 10		
CCC(=O)Nc1cc(Cl)cc(CNc2c(C#N)c(C)nn2-c2ccccc2)c1	> 10		
CCC(=O)Nc1cc(CNc2c(C#N)c(C)nn2-c2nccc3ccccc23)cc(Cl)c1O	> 1	Toxic	
CCCC(=O)Nc1cc(CNc2c(C#N)c(C)nn2-c2ccccc2)cc(Cl)c1O	3.3		
CCC(=O)Nc1cc(CNc2cc(C)nn2-c2ccccc2)cc(Cl)c1O	> 10		
CCC(=O)Nc1cc(CNc2c(C#N)c(CC)nn2-c2ccccc2)cc(Cl)c1O	> 10		
CCC(=O)Nc1cc(CNc2c(C#N)c(C)nn2C)cc(Cl)c1O	> 10		
CCC(=O)Nc1cc(CNc2c(C#N)c(C)nn2-c2cccc(-c3ccc(Cl)c(Cl)c3)c2)cc(Cl)c1O	0.047		Toxic
CCC(=O)Nc1cc(CNc2c(C#N)c(C)nn2-c2ccccc2)ccc1O	> 10		
CCC(=O)Nc1cc(CNc2c(C#N)c(C)nn2-c2cc(Cl)cc(Cl)c2)cc(Cl)c1O	> 1	Toxic	
CCC(=O)Nc1cc(CNc2c(C#N)c(C)nn2-c2cccc3ccccc23)cc(Cl)c1O	> 1	Toxic	
CCC(=O)Nc1cc(CNc2c(C#N)c(C)nn2-c2cccc(-c3ccccc3)c2)cc(Cl)c1O	0.13		Toxic
CCC(=O)Nc1cc(CNc2c(C#N)c(C)nn2C2CCCCC2)cc(Cl)c1O	> 1	Toxic	
CCC(=O)Nc1cc(CNc2c(C#N)c(C)nn2-c2ccccc2)cc(Cl)c1OC	> 10		
CCC(=O)Nc1cc(CNc2c(C#N)c(-c3ccccc3)nn2-c2ccccc2)cc(Cl)c1O	> 10		
CCCCCC(=O)Nc1cc(CNc2c(C#N)c(C)nn2-c2ccccc2)cc(Cl)c1O	> 10		
CCC(=O)Nc1cc(CNc2c(C#N)c(C)nn2-c2cccc(-c3ccncc3)c2)cc(Cl)c1O	> 1	Toxic	

Structure (SMILES)	EC50 [2] [µM]	Activity [1]	Activity [3]
CCC(=O)Nc1cc(CNc2c(C#N)c(C)nn2-c2cccc(-c3ccccc3Cl)c2)cc(Cl)c1O	0.25	Toxic	
CCC(=O)Nc1cc(CNc2c(C#N)c(C)nn2-c2cccc(-c3ccc(Cl)cc3)c2)cc(Cl)c1O	> 0.1		Toxic
CCC(=O)Nc1cc(CNc2c(C#N)cnn2-c2ccccc2)cc(Cl)c1O	> 1	Toxic	
CCC(=O)Nc1cc(/C=C/c2c(C#N)c(C)nn2-c2ccccc2)cc(Cl)c1O	0.44		
CCC(=O)Nc1cc(CNc2c(C#N)c(C)nn2-c2cccc(-c3cnc4ccccc4c3)c2)cc(Cl)c1O	> 0.1		Toxic
CCC(=O)Nc1cc(CNc2c(C#N)c(C)nn2-c2ccccc2)cc(C)c1O	> 10		
CCC(=O)Nc1cc(CNc2c(C#N)c(C)nn2-c2cccc(-c3cccc(Cl)c3)c2)cc(Cl)c1O	> 0.1		Toxic
CCC(=O)Nc1cc(CNc2c(C#N)c(C)nn2-c2cccc(-c3ccc(OC)cc3)c2)cc(Cl)c1O	> 0.1		Toxic
CCC(=O)Nc1cc(CNc2c(C#N)c(C)nn2-c2cccc(-c3ccc4ccccc4c3)c2)cc(Cl)c1O	> 0.1		Toxic
CC(=O)Nc1cc(CNc2c(C#N)c(C)nn2-c2ccccc2)cc(Cl)c1O	> 1	Toxic	
CCC(=O)Nc1cc(CNc2c(C#N)c(C)nn2-c2cccc(-c3cccc(OC)c3)c2)cc(Cl)c1O	> 0.1		Toxic
CCC(=O)Nc1cc(/N=N/c2c(C#N)c(C)nn2-c2ccccc2)cc(Cl)c1O	0.32		
CCC(=O)Nc1cc(CNc2c(C#N)c(C)nn2-c2cccc(-c3ccccc3OC)c2)cc(Cl)c1O	> 0.1		Toxic
CCNC(=O)c1cc(CNc2c(C#N)c(C)nn2-c2ccccc2)cc(Cl)c1O	> 1	Toxic	
CCC(=O)Nc1cc(CNc2c(C(=O)OC)c(C)nn2-c2ccccc2)cc(Cl)c1O	> 1	Toxic	
CCC(=O)Nc1cc(CNc2c(C#N)c(C)nn2-c2ccccn2)cc(Cl)c1O	> 0.1		Toxic

The next lines start with results.

EC50 [2] [µM]	Structure (SMILES)	Activity [1]	Activity [3]
> 1	CCC(=O)Nc1cc(CNc2c(C#N)c(C)nn2-c2ccccc2C)cc(Cl)c1O	Toxic	
> 10	CCC(=O)Nc1cc(CNc2c(C#N)c(C)nn2-c2cccnc2)cc(Cl)c1O		
0.058	CCC(=O)Nc1cc(CNc2c(C#N)c(C)nn2-c2cccc(-c3cccc(C)c3)c2)cc(Cl)c1O		Toxic
> 0.1	CCC(=O)Nc1cc(CNc2c(C#N)c(C)nn2-c2cccc(Br)c2)cc(Cl)c1O		Toxic
> 1	CCC(=O)Nc1cc(CNc2c(C#N)c(C)nn2-c2ccc3ccccc3c2)cc(Cl)c1O	Toxic	
0.37	CCC(=O)Nc1cc(CNc2c(C#N)c(C)nn2-c2cccc(C)c2)cc(Cl)c1O	Toxic	
0.33	CCC(=O)Nc1cc(CNc2c(C#N)c(C)nn2-c2cccc(F)c2)cc(Cl)c1O	Toxic	
> 0.1	CCC(=O)Nc1cc(CNc2c(C#N)c(C)nn2-c2cccc(C(F)(F)F)c2)cc(Cl)c1O		Toxic
0.36	CCC(=O)Nc1cc(CNc2c(C#N)c(C)nn2-c2ccccc2)cc(Cl)c1O		
> 1	CCC(=O)Nc1cc(CNc2c(C#N)c(C)nn2-c2ccc(C)cc2)cc(Cl)c1O	Toxic	
0.097	CCC(=O)Nc1cc(CNc2c(C#N)c(C)nn2-c2cccc(-c3ccc(C)cc3)c2)cc(Cl)c1O		Toxic
> 0.1	CCC(=O)Nc1cc(CNc2c(C#N)c(C)nn2-c2cccc(-c3ccccc3C)c2)cc(Cl)c1O		Toxic
> 10	CCC(=O)Nc1cc(CNc2c(C#N)c(C)nn2-c2cccc(OC)c2)cc(Cl)c1O		
> 10	CCC(=O)Nc1cc(CNc2c(C#N)c(C)nn2-c2cccc(NC(C)=O)c2)cc(Cl)c1O		
> 1	CCC(=O)Nc1cc(CNc2c(C#N)c(C)nn2-c2cccc([N+](=O)[O-])c2)cc(Cl)c1O	Toxic	
